Measurements: patent US20190388406A1, “METHODS OF PREVENTION AND TREATMENT OF THROMBOSIS” (Portola Pharmaceuticals, Inc., priority 2018, published 2019)

What was measured:
[1] = test system: critically ill patients admitted to the intensive care unit (ICU); assay: Occurrence of VTE in critically ill (ICU) patients, post hoc analysis of randomized trial; type: in vivo, human
Excerpt: (§1) A multi-center, double-blind, randomized controlled trial enrolled 7,513 patients hospitalized for an acute medical illness with the following eligibility criteria: (1) hospitalization for acute medical illness, including heart failure, respiratory failure, infection, ischemic stroke, or rheumatic disorder; (2) age≥75 years, age 60 to 74 years with D-dimer≥2×the upper limit of normal (ULN), or age 40 to 59 years with D-dimer≥2×ULN and history of VTE or cancer; (3) anticipated severe immobilization for ≥24 hours followed by moderate or severe immobilization for 3 or more days; and (4) anticipated hospitalization for 3 or more days. Patients were randomly allocated in a 1:1 ratio to extended-duration betrixaban (35 to 42 days) or standard-duration enoxaparin (10±4 days).
(§2) The present study is a post hoc analysis of the effect of betrixaban in critically ill patients admitted to the intensive care unit (ICU) during the index hospitalization and received extended-duration betrixaban. The study population included in the present analysis was subjects admitted to the ICU during the index hospitalization event.
(§3) The primary efficacy endpoint was the occurrence of VTE, defined as a composite of asymptomatic proximal DVT, symptomatic DVT, non-fatal pulmonary embolism (PE), or VTE-related mortality. Safety endpoints were the occurrence of major bleeding and clinically relevant non-major bleeding, defined according to the International Society on Thrombosis and Haemostasis (ISTH) criteria. (Schulman S, Kearon C, Subcommittee on Control of Anticoagulation of the S, Standardization Committee of the International Society on T, Haemostasis. Definition of major bleeding in clinical investigations of antihemostatic medicinal products in non-surgical patients. J Thromb Haemost. 2005; 3:692-694; and Kaatz S, Ahmad D, Spyropoulos AC, Schulman S, Subcommittee on Control of A. Definition of clinically relevant non-major bleeding in studies of anticoagulants in atrial fibrillation and venous thromboembolic disease in non-surgical patients: communication from the SSC of the ISTH. J Thromb Haemost. 2015; 13:2119-2126.) All events were adjudicated by an independent clinical events committee blinded to thromboprophylaxis allocation.
(§4) Baseline characteristics of study participants were compared between treatment arms using the chi-squared test for categorical variables and one-way analysis of variance (ANOVA) for continuous variables, respectively. We analyzed efficacy using a modified intention-to-treat (mITT) population, which included subjects who received at least one dose of study medication and had data on one or more of the efficacy components. The bleeding risk of thromboprophylaxis was analyzed with the actual regimen received in the safety population, which included all randomized patients who received at least one dose of study medication. […] Absolute risk difference and relative risk of betrixaban vs. enoxaparin group were calculated and compared using the chi-squared test. The Breslow-Day test of homogeneity was performed to assess the effect modification by ICU admission on the thromboprophylaxis. All analyses were performed using two-sided tests at a significance level of 0.05 with SAS software version 9.4 (SAS Institute, Inc., North Carolina, United States).

[2] = Exposure of betrixaban on co-administration with a Pgp inhibitor; type: in vivo; conditions: concomitant Pgp inhibitor
[3] = test system: critically ill patients admitted to the intensive care unit (ICU); assay: Occurrence of major or clinically relevant non-major bleeding (ISTH) in critically ill (ICU) patients; type: in vivo
Excerpt: as §1, §2, §3, §4

[4] = test system: non-critically ill patients; assay: Occurrence of major bleeding in non-critically ill patients; type: in vivo
Excerpt: as §1, with “Patients were randomly allocated in a 1:1 ratio to extended-duration betrixaban (35 to 42 days) or standard-duration enoxaparin (10±4 days).” left out
as §4, with “The Breslow-Day test of homogeneity was performed to assess the effect modification by ICU admission on the thromboprophylaxis. All analyses were performed using two-sided tests at a significance level of 0.05 with SAS software version 9.4 (SAS Institute, Inc., North Carolina, United States).” left out

[5] = test system: critically ill patients admitted to the intensive care unit (ICU); assay: Occurrence of major bleeding (ISTH) in critically ill (ICU) patients; type: in vivo
Excerpt: as §1, §2, §3, §4

[6] = test system: non-critically ill patients; assay: Occurrence of VTE in non-critically ill patients; type: in vivo, human
Excerpt: as §1, with “Patients were randomly allocated in a 1:1 ratio to extended-duration betrixaban (35 to 42 days) or standard-duration enoxaparin (10±4 days).” left out
as §4, with “The Breslow-Day test of homogeneity was performed to assess the effect modification by ICU admission on the thromboprophylaxis. All analyses were performed using two-sided tests at a significance level of 0.05 with SAS software version 9.4 (SAS Institute, Inc., North Carolina, United States).” left out

[7] = full-dose stratum (betrixaban 80 mg daily vs. enoxaparin 40 mg daily), end of study through 77 days
[8] = full-dose stratum (betrixaban 80 mg daily vs. enoxaparin 40 mg daily), through 42 days
[9] = mITT population, end of extended thromboprophylaxis through 42 days
[10] = mITT population, end of study through 77 days
[11] = full-dose stratum (betrixaban 80 mg daily vs. enoxaparin 40 mg daily), end of study through 77 days, listed as betrixaban
[12] = full-dose stratum (betrixaban 80 mg daily vs. enoxaparin 40 mg daily), through 7 days after discontinuation
[13] = full-dose stratum (betrixaban 80 mg daily vs. enoxaparin 40 mg daily), through 7 days after discontinuation, listed as betrixaban
[14] = full-dose stratum, through 7 days after discontinuation
[15] = full-dose stratum, through 77 days
[16] = safety population, end of study through 77 days
[17] = safety population, end of study through 77 days, listed as betrixaban
[18] = safety population, through 7 days after discontinuation
[19] = safety population, through 7 days after discontinuation of study medication
[20] = safety population, through 7 days after discontinuation of study medication, listed as betrixaban
[21] = safety population, through 77 days
[22] = full-dose stratum, through 42 days
[23] = mITT population, through 42 days
[24] = mITT population, through 77 days

Compound: Enoxaparin [reference compound]
- VTE events / patients (n/N) [1, 7]: 26/228
- risk of VTE (rate) [1, 7]: (11.40%)
- risk of VTE (rate) ([1]; full-dose stratum (betrixaban 80 mg daily vs. enoxaparin 40 mg daily), end of study through 77 days, listed as enoxaparin): 11.40%
- VTE events / patients (n/N) [1, 8]: 23/276
- risk of VTE (rate) [1, 8]: (8.33%)
- risk of VTE (rate) ([1]; full-dose stratum (betrixaban 80 mg daily vs. enoxaparin 40 mg daily), through 42 days, listed as enoxaparin): 8.33%
- VTE events / patients (n/N) [1, 9]: 28/352
- risk of VTE (rate) [1, 9]: (7.95%)
- risk of VTE (rate) ([1]; mITT population, end of extended thromboprophylaxis through 42 days, listed as enoxaparin): 7.95%
- VTE events / patients (n/N) [1, 10]: 31/285
- risk of VTE (rate) [1, 10]: (10.88%)
- risk of VTE (rate) ([1]; mITT population, end of study through 77 days, listed as enoxaparin): 10.88%

Compound: COc1ccc(NC(=O)c2ccc(C(=N)N(C)C)cc2)c(C(=O)Nc2ccc(Cl)cn2)c1 [Betrixaban, N-(5-chloropyridin-2-yl)-2-(4-(N,N-dimethylcarbamimidoyl)benzamido)-5-methoxybenzamide]
- effect of Pgp inhibitor on exposure of betrixaban [2]: increases the exposure
- major or clinically relevant non-major bleeding events / patients (n/N) [3, 7]: 11/271
- risk of major or clinically relevant non-major bleeding (rate) [3, 7]: (4.06%)
- risk of major or clinically relevant non-major bleeding (rate) [3, 11]: 4.06%
- major or clinically relevant non-major bleeding events / patients (n/N) [3, 12]: 9/271
- risk of major or clinically relevant non-major bleeding (rate) [3, 12]: (3.32%)
- risk of major or clinically relevant non-major bleeding (rate) [3, 13]: 3.32%
- major or clinically relevant non-major bleeding ARD betrixaban vs. enoxaparin [3, 14]: −0.30%
- major or clinically relevant non-major bleeding RR betrixaban vs. enoxaparin [3, 14]: 0.92
- major or clinically relevant non-major bleeding ARD betrixaban vs. enoxaparin [3, 15]: 0.07%
- major or clinically relevant non-major bleeding RR betrixaban vs. enoxaparin [3, 15]: 1.02
- major or clinically relevant non-major bleeding events / patients (n/N) [3, 16]: 15/351
- risk of major or clinically relevant non-major bleeding (rate) [3, 16]: (4.27%)
- risk of major or clinically relevant non-major bleeding (rate) [3, 17]: 4.27%
- major or clinically relevant non-major bleeding ARD betrixaban vs. enoxaparin [3, 18]: 0.29%
- major or clinically relevant non-major bleeding RR betrixaban vs. enoxaparin [3, 18]: 1.09
- major or clinically relevant non-major bleeding events / patients (n/N) [3, 19]: 13/351
- risk of major or clinically relevant non-major bleeding (rate) [3, 19]: (3.70%)
- risk of major or clinically relevant non-major bleeding (rate) [3, 20]: 3.70%
- major or clinically relevant non-major bleeding ARD betrixaban vs. enoxaparin [3, 21]: 0.58%
- major or clinically relevant non-major bleeding RR betrixaban vs. enoxaparin [3, 21]: 1.16
- rates of major bleeding, betrixaban vs. enoxaparin [4]: no difference
- major bleeding events / patients (n/N) [5, 7]: 1/271
- risk of major bleeding (rate) [5, 7]: (0.37%)
- risk of major bleeding (rate) [5, 11]: 0.37%
- major bleeding events / patients (n/N) [5, 12]: 0/271
- risk of major bleeding (rate) [5, 12]: (0.00%)
- risk of major bleeding (rate) [5, 13]: 0.00%
- major bleeding ARD betrixaban vs. enoxaparin [5, 14]: −3.26%
- major bleeding NNT or NNH [5, 14]: 31
- major bleeding ARD betrixaban vs. enoxaparin [5, 15]: −3.25%
- major bleeding NNT or NNH [5, 15]: 31
- major bleeding RR betrixaban vs. enoxaparin [5, 15]: 0.10
- major bleeding events / patients (n/N) [5, 16]: 5/351
- risk of major bleeding (rate) [5, 16]: (1.42%)
- risk of major bleeding (rate) [5, 17]: 1.42%
- major bleeding ARD betrixaban vs. enoxaparin [5, 18]: −1.99%
- major bleeding RR betrixaban vs. enoxaparin [5, 18]: 0.36
- major bleeding events / patients (n/N) [5, 19]: 4/351
- risk of major bleeding (rate) [5, 19]: (1.14%)
- risk of major bleeding (rate) [5, 20]: 1.14%
- major bleeding ARD betrixaban vs. enoxaparin [5, 21]: −1.98%
- major bleeding RR betrixaban vs. enoxaparin [5, 21]: 0.42
- reduction of the risk of VTE compared with enoxaparin ([1]; critically ill patients, end of extended thromboprophylaxis through 42 days): 46%
- relative risk reduction of VTE compared with enoxaparin ([1]; critically ill patients, end of study through 77 days): 52%
- risk reduction in the VTE components (asymptomatic proximal DVT, symptomatic DVT, non-fatal PE, VTE-related death) ([1]; critically ill patients, vs. enoxaparin): did not reach statistical difference
- VTE events / patients (n/N) [1, 7]: 9/214
- risk of VTE (rate) [1, 7]: (4.21%)
- risk of VTE (rate) [1, 11]: 4.21%
- VTE events / patients (n/N) [1, 8]: 9/271
- risk of VTE (rate) [1, 8]: (3.32%)
- risk of VTE (rate) ([1]; full-dose stratum (betrixaban 80 mg daily vs. enoxaparin 40 mg daily), through 42 days, listed as betrixaban): 3.32%
- VTE ARD (absolute risk difference) betrixaban vs. enoxaparin [1, 22]: −5.01%
- VTE NNT or NNH [1, 22]: 20
- VTE RR (relative risk) betrixaban vs. enoxaparin [1, 22]: 0.40
- VTE ARD (absolute risk difference) betrixaban vs. enoxaparin [1, 15]: −7.20%
- VTE NNT or NNH [1, 15]: 14
- VTE RR (relative risk) betrixaban vs. enoxaparin [1, 15]: 0.37
- VTE events / patients (n/N) [1, 9]: 15/351
- risk of VTE (rate) [1, 9]: (4.27%)
- risk of VTE (rate) ([1]; mITT population, end of extended thromboprophylaxis through 42 days, listed as betrixaban): 4.27%
- VTE events / patients (n/N) [1, 10]: 15/286
- risk of VTE (rate) [1, 10]: (5.24%)
- risk of VTE (rate) ([1]; mITT population, end of study through 77 days, listed as betrixaban): 5.24%
- VTE ARD (absolute risk difference) betrixaban vs. enoxaparin [1, 23]: −3.68%
- VTE NNT or NNH [1, 23]: 28
- VTE RR (relative risk) betrixaban vs. enoxaparin [1, 23]: 0.54
- VTE ARD (absolute risk difference) betrixaban vs. enoxaparin [1, 24]: −5.63%
- VTE NNT or NNH [1, 24]: 18
- VTE RR (relative risk) betrixaban vs. enoxaparin [1, 24]: 0.48
- reduction of VTE risk ([6]; end of extended thromboprophylaxis): 23%
- reduction of VTE risk ([6]; end of study): 24%
